From patent publication US8507559B2, “Cyclohexenyl modulators of chemokine receptor activity” (Bristol-Myers Squibb Company, priority 2008, dated 2013)

molecular target: T1, CCR2 (Homo sapiens, UniProt P41597); experiment: CCR2 binding: antagonism of 125I-MCP-1 binding (human PBMC / THP-1 whole cell); conditions: n = 1 unless otherwise noted
T1 construct: THP-1 human monocytic leukemic cell line, which expresses endogenous CCR2; endogenous in cells; host or cells: human peripheral blood mononuclear cells, human monocytes or THP-1 cells
T1 sequence (P41597 1-360 isoform P41597-2): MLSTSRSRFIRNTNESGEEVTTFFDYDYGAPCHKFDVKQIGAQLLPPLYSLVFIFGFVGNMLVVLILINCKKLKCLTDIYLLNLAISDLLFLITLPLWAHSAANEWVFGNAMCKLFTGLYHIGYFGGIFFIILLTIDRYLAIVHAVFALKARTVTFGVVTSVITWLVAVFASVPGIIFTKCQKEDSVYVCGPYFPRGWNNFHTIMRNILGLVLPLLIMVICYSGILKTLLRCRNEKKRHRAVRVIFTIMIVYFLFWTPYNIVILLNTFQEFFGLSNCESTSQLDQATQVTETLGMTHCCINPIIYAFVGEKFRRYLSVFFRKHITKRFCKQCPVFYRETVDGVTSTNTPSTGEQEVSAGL
Description: Antagonism of MCP-1 Binding to Human PBMC
Millipore filter plates (#MABVN1250) are treated with 100 μl of binding buffer (0.5% bovine serum albumin, 20 mM HEPES buffer and 5 mM magnesium chloride in RPMI 1640 media) for thirty minutes at room temperature. To measure binding, 50 μl of binding buffer, with or without a known concentration compound, is combined with 50 μl of ^125-I labeled human MCP-1 (to give a final concentration of 150 pM radioligand) and 50 μl of binding buffer containing 5×10^5 cells. Cells used for such binding assays can include human peripheral blood mononuclear cells isolated by Ficoll-Hypaque gradient centrifugation, human monocytes (Weiner et al., J. Immunol. Methods. 1980, 36, 89), or the THP-1 cell line which expresses the endogenous receptor. The mixture of compound, cells and radioligand are incubated at room temperature for thirty minutes. Plates are placed onto a vacuum manifold, vacuum applied, and the plates washed three times with binding buffer containing 0.5M NaCl. The plastic skirt is removed from the plate, the plate allowed to air dry, the wells punched out and counted. The percent inhibition of binding is calculated using the total counts obtained in the absence of any competing compound and the background binding determined by addition of 100 nM MCP-1 in place of the test compound.
THP-1 Monocytic Cell Binding: Whole Cell-based Assay
The human CCR2 binding assay was also established with the THP-1 human monocytic leukemic cell line, which expresses endogenous CCR2, using ^125I-human MCP-1 as the tracer ligand. Radioligand competition binding assays were used for assessment of binding affinity of test compounds to the CCR2 receptor. For radioligand competition studies, 100 μl containing 2.5×10^5 THP-1 cells/well (in assay buffer containing 50 mM HEPES, pH7.4, 5 mM MgCl2, 1 mM CaCl2 and 0.5% BSA) were added to 96-well assay plates containing the test compounds in 3-fold serial dilution, with final concentrations ranging from 5 μM to 100 pM. Subsequently, 50 μl ^125I-MCP-1 radioligand at a final concentration of 0.2 nM in assay buffer were added to the reaction. After a 90 minute incubation period at room temperature, the binding reaction was terminated by harvesting on GF/B filter plates (PerkinElmer Cat. No. 6005177) followed by washing with ice-cold wash buffer (50 mM HEPES, pH 7.4, 0.1% BSA, 0.5 M NaCl) to remove unbound ligand. After washing, the plate was dried for 45 minutes at 60° C. followed by addition of 40 μl MicroScint 20 scintillation fluid, sealed and analyzed by the Packard TopCount reader. Non-specific binding was determined in the presence of 10 μM (a molar excess of 5000 fold) of an in-house CCR2 small molecule antagonist (CCR2 IC50=2 nM). Specific binding of ^125I-MCP-1 was calculated as the difference between total and non-specific binding. The competition data was plotted as a percentage inhibition of radioligand specific bound in the absence of test compound (percent of total signal). After correcting for non-specific binding, IC50 values were determined. The IC50 is defined as the concentration of test compound required to reduce ^125I-MCP-1 specific binding by 50% and was calculated using the four parameter logistic equation to fit the normalized data.

| Structure (SMILES) | Ki [nM] |
| --- | --- |
| C[C@@H]1CC=C(C(=O)O)[C@@](C)(c2ccc(F)cc2)C1 (racemic) [Example 1-22, (4RS,6RS)-6-(4-fluorophenyl)-4,6-dimethylcyclohex-1-enecarboxylic acid] | 480 |
| CC1(c2ccc(Cl)cc2)CCCC=C1C(=O)O (racemic) [Example 1-02, 6-(4-chlorophenyl)-6-methylcyclohex-1-enecarboxylic acid] | 3400 |
| C[C@@H]1CC=C(C(=O)O)[C@@](C)(c2ccc(Cl)c(Cl)c2)C1 (racemic) [Example 1-11, (4RS,6RS)-6-(3,4-dichlorophenyl)-4,6-dimethylcyclohex-1-enecarboxylic acid] | 80 |
| C[C@H]1CC=C(C(=O)O)[C@](C)(c2ccc(Cl)c(C(F)(F)F)c2)C1 [Example 4-01a, (4S,6S)-6-(4-chloro-3-(trifluoromethyl)-phenyl)-4,6-dimethylcyclohex-1-enecarboxylic acid] | 9 |
| Cc1cc(C)cc([C@@]2(C)C[C@H](C)CC=C2C(=O)O)c1 (racemic) [Example 1-29, (4RS,6RS)-6-(3,5-dimethylphenyl)-4,6-dimethylcyclohex-1-enecarboxylic acid] | 300 |
| CC1=C(C(=O)O)[C@@](C)(c2ccc(Cl)c(Cl)c2)C[C@H](C)C1 (racemic) [Example 6, (4RS,6RS)-6-(3,4-dichlorophenyl)-2,4,6-trimethylcyclohex-1-enecarboxylic acid] | 580 |
| CC1(c2ccc(Cl)c(Cl)c2)CCCC=C1C(=O)O (racemic) [Example 1-01, 6-(3,4-dichlorophenyl)-6-methylcyclohex-1-enecarboxylic acid] | 440 |
| Cc1ccc([C@@]2(C)C[C@H](C)CC=C2C(=O)O)cc1Cl (racemic) [Example 1-04, (4RS,6RS)-6-(3-chloro-4-methylphenyl)-4,6-dimethylcyclohex-1-enecarboxylic acid] | 69 |

The remaining compounds from weak to strong by Ki, led by results:

| Ki [nM] | Structure (SMILES) |
| --- | --- |
| 3700 | Cc1cccc([C@@]2(C)C[C@H](C)CC=C2C(=O)O)c1C (racemic) [Example 1-19, (4RS,6RS)-6-(2,3-dimethylphenyl)-4,6-dimethylcyclohex-1-enecarboxylic acid] |
| 1100 | Cc1cc([C@@]2(C)C[C@H](C)CC=C2C(=O)O)ccc1F (racemic) [Example 1-25, (4RS,6RS)-6-(4-fluoro-3-methylphenyl)-4,6-dimethylcyclohex-1-enecarboxylic acid] |
| 930 | Cc1cccc([C@@]2(C)C[C@H](C)CC=C2C(=O)O)c1 (racemic) [Example 1-18, (4RS,6RS)-4,6-dimethyl-6-m-tolylcyclohex-1-enecarboxylic acid] |
| 320 | C[C@@H]1CC=C(C(=O)O)[C@@](C)(c2ccc3ccccc3c2)C1 (racemic) [Example 1-20, (4RS,6RS)-4,6-dimethyl-6-(naphthalen-2-yl)cyclohex-1-enecarboxylic acid] |
| 250 | Cc1ccc([C@@]2(C)C[C@H](C)CC=C2C(=O)O)c2ccccc12 (racemic) [Example 1-28, (4RS,6RS)-4,6-dimethyl-6-(4-methyl-naphthalen-1-yl)cyclohex-1-enecarboxylic acid] |
| 210 | C[C@]1(c2ccc(Cl)c(C(F)(F)F)c2)C[C@H](CO)CC=C1C(=O)O (racemic) [Example 7, (4RS,6RS)-6-(4-chloro-3-(trifluoromethyl)-phenyl)-4-(hydroxymethyl)-6-methylcyclohex-1-enecarboxylic acid] |
| 11 | C[C@@H]1CC=C(C(=O)O)[C@@](C)(c2ccc(Cl)c(C(F)(F)F)c2)C1 (racemic) [Example 1-13, (4RS,6RS)-6-(4-chloro-3-(trifluoromethyl)-phenyl)-4,6-dimethylcyclohex-1-enecarboxylic acid] |
